These results are taken from US20080004302A1, “Novel Compounds” (ASTRAZENECA AB, priority 2006, published 2008).

Assay [1] addresses FGFR1 kinase (Homo sapiens, UniProt P11362). Kind of assay: Kinase assay (using Caliper technology). The class given is biochemical. The conditions noted are these: FGFR1 kinase, Caliper; upper bound of bin; read-out: IC50. The gist of the method:
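Human FGFR1 kinase activity measured with a 13-mer fluorescently tagged FGFR1-specific peptide substrate; compounds serially diluted in 5% (v/v) DMSO. Reactions ran 1.5 h at room temperature, stopped with EDTA-containing HEPES pH 7.5 buffer. Phosphorylated and unphosphorylated peptide separated by microfluidic mobility shift.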

The target in assay [2] is T1, FGFR1 IIIc (Homo sapiens, UniProt P11362).
T1 construct: host or cells: Cos-1
Nature of the assay: Cell based inhibition of transiently expressed FGFR1 IIIc phosphorylation (Cos-1 cells). The conditions noted are these: Cos-1 cells, phospho-FGFR1; upper bound of bin; read-out: IC50. The protocol: This assay is designed to detect inhibitors of transiently expressed FGFR1 phosphorylation by antibody staining of fixed cells detected using ArrayScan technology.
To undertake the assay, Cos-1 cells were harvested at 90-95% confluence for cell transfection. For each 96-well plate, 24 ul Lipofectamine 2000 was added to 809 ul OptiMEM and incubated at room temperature for 5 minutes. […] Equal volumes of DNA and Lipofectamine 2000 were combined (DNA: Lipid=1:1.2 ratio) and incubated at room temperature for 20 minutes.
The harvested Cos-1 cells are counted using a coulter counter and diluted further with 1% FCS/DMEM to 2.5×10^5 cells/ml. For each 96-well, 8.33 ml cells were required. […] Media was removed from the wells using vacuum aspiration; cells were fixed by adding 50μl of 100% methanol to each well and incubated at room temperature for 20 minutes.
The plates were read on an Arrayscan (Cellomics).

For assay [3], the target named is T2, human IGF1R (Homo sapiens, UniProt P08069).
T2 construct: expressed in transfected cells; host or cells: R+ cells (R- mouse fibroblasts transfected with human IGF1R)
Kind of assay: Inhibition of insulin-like growth factor-1 receptor phosphorylation in R+ cells. The class given is cell-based. The conditions noted are these: 30 nM IGF1, read-out: IGF cell class.

The subject of assay [4] is Erk phosphorylation. Kind of assay: Growth factor (bFGF) stimulated Erk phosphorylation in NIH 3T3 cells. The conditions noted are these: Mus musculus, NIH3T3, NIH 3T3 cells, 3 ng/ml bFGF.
Source text: These and other assays were used to evaluate the ability of a test compound to inhibit growth factor stimulated cellular signalling in mammalian cell lines. This was achieved by measuring the amount of receptor tyrosine kinase regulated Erk phosphorylation within a cell following compound treatment.
NIH 3T3 (ECACC, 93061524) cells were routinely passaged in DMEM (Gibco BRL, 41966) plus 10% foetal calf serum (FCS), 1% L-glutamine (Gibco BRL, 25030) to a confluence not greater than 80%. To undertake the assay, NIH 3T3's were seeded at 1×10^4 cells/well in DMEM plus 10% foetal calf serum, 1% L-glutamine in 96 well plates (Costar, 3904) and incubated at 37° C. (+5% CO2) in a humidified incubator. Once the cells had fully adhered (typically following 4-5 hours incubation) the media was removed from each well and the cells gently washed with 100μl warm serum free media. 90μl of serum free DMEM plus 1% L-glutamine was then added to each well and the plates were returned to a humidified 37° C. (+5% CO2) incubator. The following day, the plates were dosed with 10[l compound (diluted from 10 mM stock in DMSO using serum free DMEM) and the plates were returned to a humidified 37° C. (+5% CO2) incubator for one hour. NIH 3T3 cells were then stimulated with a final concentration of 3 ng/ml bFGF (Sigma, F029 1) for 20 minutes at 37° C. Following stimulation the cells were fixed by adding formaldehyde (4% v/v final concentration) and incubating at room temperature for 20 minutes. The fixative solution was then removed and the wells were washed twice with 100μl phosphate buffered saline (PBS/A) before permeabilising the cells by the addition of 50 μl/well 0.1% triton/PBS/A for 10 minutes at room temperature. The permeabilisation solution was then removed and the cells washed twice more with 100 μl/well PBS/A before the addition of 50 μl/well anti-phospho p44/42 (Cell Signalling Technology, 9106), diluted 1/500 with PBS/A plus 10% FCS. The anti-phospho p44/42 antibody recognises Erk phosphorylated at threonine 202 and tyrosine 204. […] Finally, the plates were washed three times with 100 μl/well PBS/A, leaving the final wash in the wells before sealing the plates. The plates were read at 350 nm and 488 nm using an Arrayscan (Cellomics).
Assay [5] deals with T1, FGFR1 IIIc. Kind of assay: Cell based inhibition of transiently expressed FGFR1 IIIc phosphorylation via use of ECHO technology (Cos-1 cells). The note with it: Cos-1 cells, phospho-FGFR1, ECHO dosing; upper bound of bin; read-out: IC50.

The structures appear in SMILES notation. Where a name gives a salt, the structure may show the parent alone. Where only a bound is given, the exact number is not on record here.

T2 sequence (P08069 31-1367): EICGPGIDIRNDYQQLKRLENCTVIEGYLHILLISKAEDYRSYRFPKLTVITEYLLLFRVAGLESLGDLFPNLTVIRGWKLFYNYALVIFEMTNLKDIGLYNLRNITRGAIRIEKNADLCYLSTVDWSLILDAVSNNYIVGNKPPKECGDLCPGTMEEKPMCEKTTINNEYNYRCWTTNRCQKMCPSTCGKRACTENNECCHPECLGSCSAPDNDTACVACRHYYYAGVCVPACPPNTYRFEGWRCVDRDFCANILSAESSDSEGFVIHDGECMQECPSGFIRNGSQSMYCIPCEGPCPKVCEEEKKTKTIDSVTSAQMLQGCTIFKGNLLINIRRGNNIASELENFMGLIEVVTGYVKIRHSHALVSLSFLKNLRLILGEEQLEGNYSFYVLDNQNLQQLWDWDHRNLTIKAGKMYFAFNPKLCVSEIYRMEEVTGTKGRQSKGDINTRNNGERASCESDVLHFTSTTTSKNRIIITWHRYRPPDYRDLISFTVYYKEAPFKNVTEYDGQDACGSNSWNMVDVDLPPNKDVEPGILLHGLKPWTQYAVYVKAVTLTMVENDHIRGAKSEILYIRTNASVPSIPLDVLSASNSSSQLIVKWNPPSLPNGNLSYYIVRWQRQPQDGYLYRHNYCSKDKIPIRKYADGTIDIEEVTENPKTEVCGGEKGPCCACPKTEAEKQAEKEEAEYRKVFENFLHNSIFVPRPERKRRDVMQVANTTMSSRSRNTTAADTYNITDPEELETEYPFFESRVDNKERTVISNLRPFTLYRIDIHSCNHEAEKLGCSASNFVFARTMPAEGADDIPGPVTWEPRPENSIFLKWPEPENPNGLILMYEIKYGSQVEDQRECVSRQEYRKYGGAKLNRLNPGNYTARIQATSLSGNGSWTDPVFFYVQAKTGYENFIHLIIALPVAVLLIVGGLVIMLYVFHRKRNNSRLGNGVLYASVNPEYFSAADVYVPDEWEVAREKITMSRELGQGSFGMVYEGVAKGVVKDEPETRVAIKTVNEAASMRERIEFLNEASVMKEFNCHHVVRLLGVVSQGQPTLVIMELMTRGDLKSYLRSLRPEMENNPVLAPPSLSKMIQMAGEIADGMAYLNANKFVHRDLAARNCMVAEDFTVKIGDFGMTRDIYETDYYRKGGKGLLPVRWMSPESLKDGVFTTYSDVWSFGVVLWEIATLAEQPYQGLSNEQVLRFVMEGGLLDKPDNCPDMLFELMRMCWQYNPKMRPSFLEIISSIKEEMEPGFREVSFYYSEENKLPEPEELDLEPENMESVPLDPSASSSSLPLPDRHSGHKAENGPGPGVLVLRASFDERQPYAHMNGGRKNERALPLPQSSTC
T1 sequence (P11362 22-822): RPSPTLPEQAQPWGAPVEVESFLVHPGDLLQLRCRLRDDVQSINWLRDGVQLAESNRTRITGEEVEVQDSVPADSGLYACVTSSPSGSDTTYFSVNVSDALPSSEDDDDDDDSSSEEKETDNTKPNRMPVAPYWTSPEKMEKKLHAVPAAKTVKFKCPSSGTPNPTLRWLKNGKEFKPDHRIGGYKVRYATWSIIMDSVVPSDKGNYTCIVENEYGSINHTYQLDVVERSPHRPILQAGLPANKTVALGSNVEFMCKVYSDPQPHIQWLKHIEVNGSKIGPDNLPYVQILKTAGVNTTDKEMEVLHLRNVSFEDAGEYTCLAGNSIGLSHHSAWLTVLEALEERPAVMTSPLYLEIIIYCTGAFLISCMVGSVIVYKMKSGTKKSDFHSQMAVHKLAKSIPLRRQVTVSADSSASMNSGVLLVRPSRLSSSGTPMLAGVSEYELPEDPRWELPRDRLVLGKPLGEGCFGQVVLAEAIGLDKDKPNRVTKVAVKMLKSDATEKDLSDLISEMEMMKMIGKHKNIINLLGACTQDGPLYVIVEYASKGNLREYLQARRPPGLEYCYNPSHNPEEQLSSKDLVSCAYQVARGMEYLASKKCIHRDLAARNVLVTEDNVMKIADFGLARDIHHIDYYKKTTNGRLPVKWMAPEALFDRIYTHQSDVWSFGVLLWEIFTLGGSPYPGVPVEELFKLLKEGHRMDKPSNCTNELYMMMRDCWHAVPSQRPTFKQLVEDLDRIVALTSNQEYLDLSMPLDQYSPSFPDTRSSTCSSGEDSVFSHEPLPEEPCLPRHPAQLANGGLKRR
Sequence of FGFR1 kinase (P11362 22-822): as above

As to `Cc1cc(CNc2nccc(Nc3cc(CCc4ccoc4)[nH]n3)n2)on1` [Example 110, N′-[5-[2-(3-furyl)ethyl]-1H-pyrazol-3-yl]-N-[(3-methyl1,2-oxazol-5-yl)methyl]pyrimidine-2,4-diamine], the IC50 was < 200 nM in assay [1], < 1 µM in assay [2], 1 to 10 µM in assay [3] and < 1000 nM in assay [4] (upper bound of bin).
The matching figures for `c1cnc(-c2cc(CNc3nccc(Nc4cc(CCc5ccco5)[nH]n4)n3)on2)nc1` [Example 113, N′-[5-[2-(2-furyl)ethyl]-2H-pyrazol-3-yl]-N-[(3-pyrimidin-2-yl1,2-oxazol-5-yl)methyl]pyrimidine-2,4-diamine]: < 200 nM, < 10 µM, 1 to 10 µM and < 10000 nM.
In the same order, the values of `Cc1cc(CNc2nccc(Nc3cc(CCc4ccccc4OCc4ccccc4)[nH]n3)n2)on1` [Example 39, N-[(3-methyl1,2-oxazol-5-yl)methyl]-N′-[5-[2-(2-phenylmethoxyphenyl)ethyl]-1H-pyrazol-3-yl]pyrimidine-2,4-diamine hydrochloride] are < 10000 nM, < 10 µM, > 10 µM and < 1000 nM.
The matching figures for `Cc1cc(CNc2nccc(Nc3cc(CCc4ccc5c(c4)OCO5)[nH]n3)n2)on1` [Example 54, N′-[5-(2-benzo [1,3]dioxol-5-ylethyl)-2H-pyrazol-3-yl]-N-[(3-methyl1,2-oxazol-5-yl)methyl]pyrimidine-2,4-diamine]: < 1000 nM, < 1 µM, 1 to 10 µM and < 1000 nM.
As for `Cc1cc(CNc2nccc(Nc3cc(CCc4cccc(OCc5ccccc5)c4)n[nH]3)n2)on1` [Example 38, N-[(3-methyl1,2-oxazol-5-yl)methyl]-N′-[5-[2-(3-phenylmethoxyphenyl)ethyl]-2H-pyrazol-3-yl]pyrimidine-2,4-diamine], the IC50 was < 10000 nM in assay [1], < 10 µM in assay [2], 0.1 to 1 µM in assay [3] and < 1000 nM in assay [4] (upper bound of bin).
As for `COC(=O)c1cccc(COc2cc(Nc3ccnc(NCc4cc(C)no4)n3)n[nH]2)c1` [Example 97, Methyl 3-[[5-[[2-[(3-methyl1,2-oxazol-5-yl)methylamino]pyrimidin-4-yl]amino]-1H-pyrazol-3-yl]oxymethyl]benzoate hydrochloride], the IC50 was < 0.2 µM in assay [2], < 200 nM in assay [5], 1 to 10 µM in assay [3] and < 200 nM in assay [4].
As to `Cc1cc(CNc2nccc(Nc3cc(CCC4CCOC4)[nH]n3)n2)on1` (stereo not drawn) [Example 109, N-[(3-methyl1,2-oxazol-5-yl)methyl]-N′-[5-[2-(oxolan-3-yl)ethyl]-1H-pyrazol-3-yl]pyrimidine-2,4-diamine], the IC50 is < 1000 nM in assay [1], < 10 µM in assay [2], > 10 µM in assay [3] and < 10000 nM in assay [4] (upper bound of bin).
As to `Cc1cc(CNc2nccc(Nc3cc(OCc4cccc(C(F)(F)F)c4)[nH]n3)n2)on1` [Example 95, N-[(3-methyl1,2-oxazol-5-yl)methyl]-N′-[5-[[3-(trifluoromethyl)phenyl]methoxy]-1H-pyrazol-3-yl]pyrimidine-2,4-diamine hydrochloride], the IC50 in assay [1] is < 10000 nM; in assay [2] it was < 10 µM; in assay [3], > 10 µM; in assay [4] (upper bound of bin), < 10000 nM.
For `Cc1cc(CNc2nccc(Nc3cc(OCc4cccc(OS(C)(=O)=O)c4)[nH]n3)n2)on1` [Example 88, N-[(3-methyl1,2-oxazol-5-yl)methyl]-N′-[5-[(3-methylsulfonyloxyphenyl)methoxy]-2H-pyrazol-3-yl]pyrimidine-2,4-diamine], the IC50 is < 1000 nM in assay [1], < 10 µM in assay [2], > 10 µM in assay [3] and < 10000 nM in assay [4] (upper bound of bin).
Regarding `Cc1cc(CNc2nccc(Nc3cc(-c4ccco4)[nH]n3)n2)on1` [Example 105, N′-[5-(2-furyl)-1H-pyrazol-3-yl]-N-[(3-methyl1,2-oxazol-5-yl)methyl]pyrimidine-2,4-diamine], the IC50 in assay [1] is < 1000 nM; in assay [2] it was < 10 µM; in assay [3], > 10 µM; in assay [4] (upper bound of bin) it was < 1000 nM.
Regarding `COc1ccccc1CCc1cc(Nc2ccnc(NCc3cc(C)no3)n2)n[nH]1` [Example 31, N′-[5-[2-(2-methoxyphenyl)ethyl]-1H-pyrazol-3-yl]-N-[(3-methyl1,2-oxazol-5-yl)methyl]pyrimidine-2,4-diamine hydrochloride], the IC50 is < 1000 nM in assay [1], < 10 µM in assay [2], > 10 µM in assay [3] and < 10000 nM in assay [4] (upper bound of bin).
The matching figures for `Cc1cc(CNc2nccc(Nc3cc(COc4ccccc4)[nH]n3)n2)on1` [Example 34, N-[(3-methyl-1,2-oxazol-5-yl)methyl]-N′-[5-(phenoxymethyl)-2H-pyrazol-3-yl]pyrimidine-2,4-diamine]: < 10000 nM, < 10 µM, > 10 µM and < 10000 nM.
The matching figures for `COc1cc(COc2cc(Nc3ccnc(NCc4cc(C)no4)n3)n[nH]2)ccc1F` [Example 100, N′-[5-[(4-fluoro-3-methoxy-phenyl)methoxy]-1H-pyrazol-3-yl]-N-[(3-methyl1,2-oxazol-5-yl)methyl]pyrimidine-2,4-diamine hydrochloride]: < 10000 nM, < 10 µM, 1 to 10 µM and < 10000 nM.
`Cc1cc(CNc2nccc(Nc3cc(CCc4cccc(Br)c4)[nH]n3)n2)on1` [Example 53, N′-[5-[2-(3-bromophenyl)ethyl]-1H-pyrazol-3-yl]-N-[(3-methyl1,2-oxazol-5-yl)methyl]pyrimidine-2,4-diamine hydrochloride]: the IC50 is < 1000 nM in assay [1]; < 1 µM in assay [2]; > 10 µM in assay [3]; < 200 nM in assay [4]; < 1000 nM in assay [4] (upper bound of bin).
As for `Cc1cc(CNc2nccc(Nc3cc(CCc4cccc(C#N)c4)[nH]n3)n2)on1` [Example 48, 3-[2-[5-[[2-[(3-methyl-1,2-oxazol-5-yl)methylamino]pyrimidin-4-yl]amino]-2H-pyrazol-3-yl]ethyl]benzonitrile], the IC50 in assay [1] was < 1000 nM; in assay [2], < 10 µM; in assay [3] it was > 10 µM; in assay [4] (upper bound of bin) it was < 10000 nM.
In the same order, the values of `Cc1cc(CNc2nccc(Nc3cc(CCc4cccc(OC(F)(F)F)c4)[nH]n3)n2)on1` [Example 51, N-[(3-methyl1,2-oxazol-5-yl)methyl]-N′-[5-[2-[3-(trifluoromethoxy)phenyl]ethyl]-1H-pyrazol-3-yl]pyrimidine-2,4-diamine] are < 10000 nM, < 10 µM, > 10 µM and < 10000 nM.
`COCCOc1cccc(CCc2cc(Nc3ccnc(NCc4cc(C)no4)n3)n[nH]2)c1` [Example 40, N′-[5-[2-[3-(2-methoxyethoxy)phenyl]ethyl]-2H-pyrazol-3-yl]-N-[(3-methyl1,2-oxazol-5-yl)methyl]pyrimidine-2,4-diamine]: the IC50 in assay [1] is < 1000 nM; in assay [2], < 10 µM; in assay [3], 1 to 10 µM; in assay [4] (upper bound of bin) it was < 1000 nM.
Regarding `Cc1cc(CNc2nccc(Nc3cc(CCc4cc(C)nn4C)[nH]n3)n2)on1` [Example 118, N′-[5-[2-(2,5-dimethylpyrazol-3-yl)ethyl]-1H-pyrazol-3-yl]-N-[(3-methyl-1,2-oxazol-5-yl)methyl]pyrimidine-2,4-diamine], the IC50 is < 1000 nM in assay [1], < 30 µM in assay [2], > 10 µM in assay [3] and < 30000 nM in assay [4] (upper bound of bin).
In the same order, the values of `COc1ccc(CCc2cc(Nc3ccnc(NCc4cc(C)no4)n3)n[nH]2)c(C)c1` [Example 47, N′-[5-[2-(4-methoxy-2-methyl-phenyl)ethyl]-2H-pyrazol-3-yl]-N-[(3-methyl1,2-oxazol-5-yl)methyl]pyrimidine-2,4-diamine] are < 1000 nM, < 1 µM, 1 to 10 µM and < 1000 nM.
In the same order, the values of `Cc1cc(CNc2nccc(Nc3cc(CCc4cc(O)cc(O)c4)[nH]n3)n2)on1` [Example 43, 5-[2-[5-[[2-[(3-methyl1,2-oxazol-5-yl)methylamino]pyrimidin-4-yl]amino]-1H-pyrazol-3-yl]ethyl]benzene-1,3-diol] are < 200 nM, < 10 µM, > 10 µM and < 1000 nM.
